From article PMC8268887, “Peptide/β-Peptoid Hybrids with Ultrashort PEG-Like Moieties: Effects on Hydrophobicity, Antibacterial Activity and Hemolytic Properties” (International Journal of Molecular Sciences, 2021)
In brackets after ≈: the same amount, converted by molar mass.

How the values were obtained:
[1] = rat, in vivo; cited from earlier work
[2] = test system: P. aeruginosa NMI 7197/19; assay type: cell-based, Pseudomonas aeruginosa; details: NMI 7197/19, 20 h
Protocol: (§1) MIC values of the peptidomimetics were evaluated by using the modified Hancock lab protocol in non-binding polystyrene microtiter plates. Bacterial suspensions of ~5 × 10^5 CFU/mL in Mueller-Hinton broth (Difco, Sparks, MD, USA) were prepared with Mg^2+ and Ca^2+ concentrations of 4 mg/L each. The compounds were dissolved in H2O and diluted in 0.01% acetic acid, 0.2% BSA (final concentration). Aliquots (11 µL) of test compounds were then transferred to wells containing bacterial suspensions (100 µL). Low-binding sterile tubes and tips (Axygen, Union City, CA, USA) were used for preparation and transfer of the solutions of the compounds. Following incubation for 20 h of the covered plates at 35 °C (±2 °C) with circular shaking at 180 rpm, the MICs were read.

[3] = test system: P. aeruginosa PAO1; assay type: cell-based, Pseudomonas aeruginosa; details: PAO1, 20 h
Protocol: as §1

[4] = Hydrophobicity by retention in analytical RP-HPLC (% MeCN at peak elution); assay type: physicochemical
Protocol: For each peptide/β-peptoid hybrid oligomer, the retention time in RP-HPLC was measured on four different columns (details shown in Table 2): Phenomenex Luna C18(2) column (recommended for hydrophobic compounds [49]), Phenomenex Luna Omega Polar C18 column (recommended for both very polar and non-polar compounds [50]) as well as Phenomenex Aeris Peptide XB-C18 [51] and Sigma-Aldrich Supelco Discovery BIO Wide pore C18 [52] columns, which both are recommended for analysis of peptides. The retention times of the compounds on each column were used to calculate the acetonitrile concentration at peak elution (denoted merely as % MeCN; Table 1). As expected, the % MeCN for each compound varied somewhat between the four columns.
Starting materials and solvents were acquired from commercial suppliers (Iris Biotech, Markredwitz, Germany; Fluorochem, Hadfield, UK; and Merck, Darmstadt, Germany) and used without further purification. Water used for analytical and preparative high-performance liquid chromatography (HPLC) was filtered through a 0.22-μm capsule filter using an Evoqua LaboStar Pro TWF UV system. Purity and retention time of each peptidomimetic were determined by analytical HPLC by using a Phenomenex Luna Omega Polar C18 column (150 × 4.6 mm; particle size: 3 μm; pore size: 100 Å) on a Shimadzu Prominence and Shimadzu Nexera system using an aqueous acetonitrile (MeCN, VWR, Søborg, Denmark) gradient with 0.1% trifluoroacetic acid (TFA, Iris Biotech, Markredwitz, Germany) added (eluent A: 5:95 MeCN–H2O + 0.1% TFA, eluent B: 95:5 MeCN–H2O + 0.1% TFA); a flow rate of 0.8 mL/min was used. For elution of peptidomimetics, a linear gradient of 0% to 60% B during 15 min was used with UV detection at λ = 220 nm. […] Retention time of each peptidomimetic was also determined by using a Phenomenex Luna C18(2) column (150 × 4.6 mm; particle size: 3 μm; pore size: 100 Å), a Phenomenex Aeris Peptide XB-C18 column (150 × 4.6 mm; particle size: 3.6 μm; pore size: 100 Å), and a Sigma-Aldrich Supelco Discovery BIO Wide pore C18 column (150 × 4.6 mm, particle size: 3 µm; pore size: 300 Å). For each peptidomimetic, the percentage of MeCN at peak elution was calculated from the retention time by using the following formula:(1) %MeCN =0.95 (0.6Rt/15 min)+0.05 (1−0.6Rt/15 min)

[5] = test system: E. coli NMI 3898/15; assay type: cell-based, Escherichia coli; details: NMI 3898/15, 20 h
Protocol: as §1

[6] = test system: E. coli ATCC 25922; assay type: cell-based, Escherichia coli; details: ATCC 25922, 20 h
Protocol: as §1

[7] = test system: E. coli NMI 3371/16; assay type: cell-based, Escherichia coli; details: NMI 3371/16, 20 h
Protocol: as §1

[8] = test system: HepG2 cell line ATCC HB-8065; assay: Antiproliferative activity on HepG2 cell line (MTT assay); assay type: cell-based; details: inhibition of growth of HepG2 cells, 48 h, MTT; highest concentration tested 1280 µg/mL
Protocol: (§2) Effect of compounds on mammalian cell viability was estimated on the HepG2 cell line ATCC HB-8065. In brief, HepG2 cells were seeded into flat-bottomed 96-well plates at a concentration of 5000 cells per well. Subsequently, the cells were incubated for 24 h in a humidified incubator (5% CO2, 37 °C). Then, the medium was removed, and the cells were incubated for 48 h in a humidified incubator (5% CO2, 37 °C) with peptidomimetics in serial dilutions. Then, an 3-(4,5-dimethylthiazol-2-yl)-2,5-diphenyltetrazolium bromide (MTT) assay was performed as previously described. In brief, after incubation with the test compounds, the culture medium was removed, and then fresh medium with 0.2 mg/mL MTT was added into each well of the plate. The cells were then incubated (3 h, 37 °C, 5% CO2), followed by removal of the medium with MTT and addition of 200 μL dimethyl sulfoxide at once to each sample. Absorbance of MTT was measured using the spectrophotometer TECAN Infinite M1000 at 540 nm. The relative viability was calculated by using the formula: ODtreated cells × 100/ODcontrol cells. The IC50 values are calculated by using the program Graph Pad Prism® 5.0. For all compounds, the test range was 10–1280 μg/mL.

[9] = as above; assay type: cell-based; details: HepG2 cells; at 1280 µg/mL, value in parenthesis; read-out: HepG2 cell viability at highest concentration tested
Protocol: as §2

[10] = test system: K. pneumoniae ATCC 13883; assay type: cell-based; details: ATCC 13883, 20 h
Protocol: as §1

[11] = test system: E. faecalis ATCC 29212; assay type: cell-based; details: ATCC 29212, 20 h
Protocol: as §1

[12] = Determination of hemolytic activity; assay type: cell-based; details: red blood cell suspension in PBS buffer, human red blood cells at 400 µg/mL, 37 °C
Protocol: The lysis of human red blood cells was measured almost as previously described, albeit with modifications. In brief, a suspension of freshly drawn human red blood cells (hRBCs) was washed three times with PBS buffer and centrifuged two times for 5 min at 2500 rpm. A two-fold serial dilution of compounds in PBS buffer was prepared. Plates (conical-bottomed 96-well plates) with three replicate wells per dilution, each containing 1% red blood cell suspension, were prepared and dosed with the test compound to achieve a final concentration of 400 μg/mL in a total volume of 100 μL. The plates were incubated (37 °C) for 60 min with mild agitation, and then the cells were pelleted by centrifugation at 1500 rpm for 5 min. The supernatants (50 μL) were then transferred to a fresh 96-well plate, and the concentration of hemoglobin was detected by measuring the OD at 405 nm. The OD of cells incubated with 1% SDS defined 100% hemolysis, while the OD of cells incubated with PBS buffer defined 0% hemolysis. The concentration tested was 400 μg/mL (only average values are stated in Table 5). The percent hemolysis was calculated by using the formula:(3) Hemolysis (%)=100×[Asample−Aneg.control/Apos.control−Aneg.control]

[13] = test system: S. aureus ATCC 29213; assay type: cell-based, Staphylococcus aureus; details: ATCC 29213, 20 h
Protocol: as §1

[14] = test system: A. baumannii NMI 3658/17; assay type: cell-based, Acinetobacter baumannii; details: NMI 3658/17, 20 h
Protocol: as §1

[15] = test system: A. baumannii ATCC 19606; assay type: cell-based, Acinetobacter baumannii; details: ATCC 19606, 20 h
Protocol: as §1

| Compound | elimination half-life [1] | MIC, P. aeruginosa NMI 7197/19 [2] | MIC, PA [3] | % MeCN at Elution, Aeris Peptide ([4]; Phenomenex Aeris Peptide XB-C18 column, gradient 0→60% B during 15 min) | % MeCN at Elution, Luna ([4]; Phenomenex Luna C18(2) column, RP-HPLC gradient 0→60% B during 15 min, relative hydrophobicity) | % MeCN at Elution, Luna Omega ([4]; Phenomenex Luna Omega Polar C18 column, gradient 0→60% B during 15 min) | % MeCN at Elution, Supelco Discovery ([4]; Supelco Discovery BIO Wide pore C18 column, gradient 0→60% B during 15 min) | MIC, E. coli NMI 3898/15 [5] | MIC, EC [6] | MIC, E. coli NMI 3371/16 [7] | HepG2 IC50 [8] | viability at 48 h [9] | MIC, KP [10] | MIC, EF [11] | hemolysis at 60 min [12] | MIC, SA [13] | MIC, A. baumannii NMI 3658/17 [14] | MIC, AB [15] |
| --- | --- | --- | --- | --- | --- | --- | --- | --- | --- | --- | --- | --- | --- | --- | --- | --- | --- | --- |
| VDKPPYLPRPRPIRrPGGr-NH2 [OM19r-8] | 1.6 min | – | – | – | – | – | – | – | – | – | – | – | – | – | – | – | – | – |
| NCCCC[C@H](NC(=O)CCN(Cc1ccc(F)cc1)C(=O)[C@H](CCCCN)NC(=O)COCCOCCOCCNC(=O)CCN(Cc1ccc(F)cc1)C(=O)[C@H](CCCCN)NC(=O)CCN(Cc1ccc(F)cc1)C(=O)[C@H](CCCCN)NC(=O)COCCOCCOCCNC(=O)CCN(Cc1ccc(F)cc1)C(=O)[C@H](CCCCN)NC(=O)CCN(Cc1ccc(F)cc1)C(=O)[C@@H](N)CCCCN)C(=O)N(CCC(N)=O)Cc1ccc(F)cc1 [Compound 17, H-[X]2-sPEG3-[X]2-sPEG3-[X]2-NH2] | – | >64 mg/L | >64 mg/L | 39.8 % MeCN | 41.8 % MeCN | 42.4 % MeCN | 42.0 % MeCN | 32 mg/L (≈ 14.3 µM) | 8 mg/L (≈ 3.57 µM) | 8 to 16 mg/L | ~1280 mg/L | 35% | >64 mg/L | >64 mg/L | 9.4% | >64 mg/L | 16 mg/L (≈ 7.14 µM) | 16 to 32 mg/L |
